Results on five compounds are retold here after patent publication US12723063B2, “GIPR-agonist compounds” (Eli Lilly and Company, priority 2019, dated 2026).

The target in assay [1] is T1, human GLP-1R (Homo sapiens, UniProt P43220).
T1 construct: expressed in transfected cells; crude membranes
As to the kind of experiment: [125I]-GLP-1 binding, SPA with WGA beads, 0.1% bacitracin. As to conditions: geometric mean, read-out: hGLP1R Ki. The method, boiled down:
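Binding buffer was 25 mM HEPES pH 7.4 with 2.5 mM CaCl2, 1 mM MgCl2, 0.1% (w/v) bacitracin, 0.003% Tween-20 and EDTA-free protease inhibitors. Four-parameter regression gave IC50, converted to Ki (geometric mean, SEM, n independent days).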

Assay [2] concerns the target T2, human GcgR (Homo sapiens, UniProt P47871).
T2 construct: expressed in transfected cells; crude membranes
The assay can be described thus: [125I]-Glucagon binding, SPA with WGA beads, 0.1% bacitracin. As to conditions: geometric mean, read-out: hGcgR Ki. The method, boiled down:
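SPA competition binding with WGA beads on crude membranes from HEK293 cells stably expressing hGcgR. Buffer: 25 mM HEPES pH 7.4, 2.5 mM CaCl2, 1 mM MgCl2, 0.1% bacitracin, 0.003% Tween-20; 10-point 3-fold dilutions, NSB with 1 μM Gcg.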

For assay [3], the target named is T3, human GIPR (Homo sapiens, UniProt P48546).
T3 construct: expressed in transfected cells; crude membranes
T3 sequence (P48546 22-466): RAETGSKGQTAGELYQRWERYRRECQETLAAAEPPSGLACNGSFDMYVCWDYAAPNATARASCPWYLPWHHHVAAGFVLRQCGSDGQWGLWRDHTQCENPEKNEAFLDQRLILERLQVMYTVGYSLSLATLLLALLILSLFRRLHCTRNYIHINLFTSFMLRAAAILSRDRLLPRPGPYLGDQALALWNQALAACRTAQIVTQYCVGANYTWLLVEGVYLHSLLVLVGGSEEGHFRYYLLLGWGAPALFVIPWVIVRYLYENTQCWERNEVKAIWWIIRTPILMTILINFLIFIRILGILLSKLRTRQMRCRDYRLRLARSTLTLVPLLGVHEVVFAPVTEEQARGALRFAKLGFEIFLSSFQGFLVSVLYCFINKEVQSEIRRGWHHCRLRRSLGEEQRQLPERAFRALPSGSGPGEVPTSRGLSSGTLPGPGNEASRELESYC
As to the kind of experiment: [125I]-GIP binding, SPA with WGA beads, 0.1% bacitracin. As to conditions: geometric mean, read-out: hGIPR Ki. The method, boiled down:
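Ki values are geometric means (SEM, n independent days), derived from four-parameter nonlinear regression of IC50. Membranes came from hGIPR-expressing CHO cells.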

pKi: −log10 of the molar value. *1 amine or outer side, *2 acyl side, *3 side chain or, on linkers, in order; H or OH if unused. Where a SMILES comes first, the peptide text is derived from it. Side-chain parts run from the residue outwards. [ ]: non-standard residue; d: D form. The star is where a group is joined. C20 diacid = O=C(O)CCCCCCCCCCCCCCCCCCC(=O)*; γGlu = O=C(O)[C@H](CCC(=O)[*:2])N[*:1]; αMeF = C[C@](N)(Cc1ccccc1)C(=O)O; 4Pal = N[C@@H](Cc1ccncc1)C(=O)O; αMeL = CC(C)C[C@](C)(N)C(=O)O; AEEA = NCCOCCOCC(=O)O; Aib = CC(C)(N)C(=O)O Bounds are passed on as bounds.

T2 sequence (P47871 26-477): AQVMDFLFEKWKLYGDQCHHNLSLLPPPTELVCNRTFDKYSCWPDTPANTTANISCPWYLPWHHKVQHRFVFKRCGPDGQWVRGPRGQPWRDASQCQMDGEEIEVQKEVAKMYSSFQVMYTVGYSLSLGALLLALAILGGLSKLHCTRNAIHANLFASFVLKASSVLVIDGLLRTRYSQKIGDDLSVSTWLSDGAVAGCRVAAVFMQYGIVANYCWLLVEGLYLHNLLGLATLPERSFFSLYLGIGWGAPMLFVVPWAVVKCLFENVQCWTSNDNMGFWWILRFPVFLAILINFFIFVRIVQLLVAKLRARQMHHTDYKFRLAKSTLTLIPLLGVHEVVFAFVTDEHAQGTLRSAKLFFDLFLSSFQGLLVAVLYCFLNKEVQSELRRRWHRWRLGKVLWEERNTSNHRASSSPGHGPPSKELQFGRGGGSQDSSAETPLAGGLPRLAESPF
T1 sequence (P43220 24-463): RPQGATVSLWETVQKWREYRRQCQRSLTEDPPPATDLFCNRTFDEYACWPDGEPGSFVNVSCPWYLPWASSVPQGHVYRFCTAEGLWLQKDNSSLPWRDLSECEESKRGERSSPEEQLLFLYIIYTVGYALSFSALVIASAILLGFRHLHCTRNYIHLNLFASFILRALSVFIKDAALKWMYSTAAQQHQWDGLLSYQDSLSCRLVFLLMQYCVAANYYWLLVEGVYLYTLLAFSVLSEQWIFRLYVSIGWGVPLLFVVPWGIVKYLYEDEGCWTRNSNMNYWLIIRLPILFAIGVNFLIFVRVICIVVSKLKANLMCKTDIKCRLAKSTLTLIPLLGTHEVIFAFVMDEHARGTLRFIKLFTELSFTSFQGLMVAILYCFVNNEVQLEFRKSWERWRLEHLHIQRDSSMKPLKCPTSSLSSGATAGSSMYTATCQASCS

In general, pKi refers to −log10 of the Ki, conventionally taken in molar units. Turning to `CC[C@H](C)[C@H](NC(=O)[C@H](CO)NC(=O)[C@H](Cc1ccc(O)cc1)NC(=O)[C@H](CC(=O)O)NC(=O)[C@H](CO)NC(=O)[C@@H](NC(=O)[C@](C)(Cc1ccccc1)NC(=O)[C@@H](NC(=O)CNC(=O)[C@H](CCC(=O)O)NC(=O)C(C)(C)NC(=O)[C@@H](N)Cc1ccc(O)cc1)[C@@H](C)O)[C@@H](C)CC)C(=O)N[C@@H](C)C(=O)N[C@@H](CC(C)C)C(=O)N[C@@H](CC(=O)O)C(=O)N[C@@H](CCCCN)C(=O)N[C@@H](CCCCNC(=O)COCCOCCNC(=O)COCCOCCNC(=O)CC[C@H](NC(=O)CCCCCCCCCCCCCCCCCCC(=O)O)C(=O)O)C(=O)N[C@@H](Cc1c[nH]cn1)C(=O)N[C@@H](CCC(N)=O)C(=O)NC(C)(C)C(=O)N[C@@H](CC(=O)O)C(=O)N[C@@H](Cc1ccccc1)C(=O)N[C@H](C(=O)N[C@@H](CCC(=O)O)C(=O)N[C@@H](Cc1ccncc1)C(=O)N[C@@H](CC(C)C)C(=O)N[C@@H](CC(C)C)C(=O)N[C@@H](CCC(=O)O)C(=O)N[C@@H](C)C(=O)NCC(=O)N1CCC[C@H]1C(=O)N[C@@H](CO)C(=O)N[C@@H](CO)C(=O)NCC(=O)N[C@@H](C)C(=O)N1CCC[C@H]1C(=O)N1CCC[C@H]1C(=O)N1CCC[C@H]1C(=O)N[C@@H](CO)C(N)=O)C(C)C` [Example 43] (H-Y[Aib]EGT[αMeF]ISDYSIALDKK([AEEA-AEEA-γGlu-C20 diacid])HQ[Aib]DFVE[4Pal]LLEAGPSSGAPPPS-NH2), the pKi in assay [1] is 6.22; in assay [2], 6.55; in assay [3], 10.44.
Turning to `CC[C@H](C)[C@H](NC(=O)[C@H](CO)NC(=O)[C@H](Cc1ccc(O)cc1)NC(=O)[C@H](CC(=O)O)NC(=O)[C@H](CO)NC(=O)[C@@H](NC(=O)[C@](C)(Cc1ccccc1)NC(=O)[C@@H](NC(=O)CNC(=O)[C@H](CCC(=O)O)NC(=O)C(C)(C)NC(=O)[C@@H](N)Cc1ccc(O)cc1)[C@@H](C)O)[C@@H](C)CC)C(=O)N[C@@H](C)C(=O)N[C@@H](CC(C)C)C(=O)N[C@@H](CC(=O)O)C(=O)N[C@@H](CCCCN)C(=O)N[C@@H](CCCCNC(=O)COCCOCCNC(=O)COCCOCCNC(=O)CC[C@H](NC(=O)CCCCCCCCCCCCCCCCCCC(=O)O)C(=O)O)C(=O)N[C@@H](Cc1c[nH]cn1)C(=O)N[C@@H](CCC(N)=O)C(=O)NC(C)(C)C(=O)N[C@@H](CC(=O)O)C(=O)N[C@@H](Cc1ccccc1)C(=O)N[C@H](C(=O)N[C@@H](CCC(=O)O)C(=O)N[C@@H](Cc1ccncc1)C(=O)N[C@@H](CC(C)C)C(=O)N[C@@H](CC(C)C)C(=O)N[C@@H](CCC(=O)O)C(=O)NCC(=O)NCC(=O)N1CCC[C@H]1C(=O)N[C@@H](CO)C(=O)N[C@@H](CO)C(=O)NCC(=O)N[C@@H](C)C(=O)N1CCC[C@H]1C(=O)N1CCC[C@H]1C(=O)N1CCC[C@H]1C(=O)N[C@@H](CO)C(N)=O)C(C)C` [Example 44] (H-Y[Aib]EGT[αMeF]ISDYSIALDKK([AEEA-AEEA-γGlu-C20 diacid])HQ[Aib]DFVE[4Pal]LLEGGPSSGAPPPS-NH2), the pKi in assay [1] is 6.68; in assay [2], 7.30; in assay [3], 10.23.
The matching figures for `CC[C@H](C)[C@H](NC(=O)[C@H](Cc1ccccc1)NC(=O)[C@@H](NC(=O)CNC(=O)[C@H](CCC(=O)O)NC(=O)C(C)(C)NC(=O)[C@@H](N)Cc1ccc(O)cc1)[C@@H](C)O)C(=O)N[C@@H](CO)C(=O)N[C@@H](CC(=O)O)C(=O)N[C@@H](Cc1ccc(O)cc1)C(=O)N[C@@H](CO)C(=O)N[C@H](C(=O)N[C@@](C)(CC(C)C)C(=O)N[C@@H](CC(C)C)C(=O)N[C@@H](CC(=O)O)C(=O)N[C@@H](CCCCN)C(=O)N[C@@H](CCCCNC(=O)COCCOCCNC(=O)COCCOCCNC(=O)CC[C@H](NC(=O)CCCCCCCCCCCCCCCCCCC(=O)O)C(=O)O)C(=O)N[C@@H](Cc1c[nH]cn1)C(=O)N[C@@H](CCC(N)=O)C(=O)NC(C)(C)C(=O)N[C@@H](CC(=O)O)C(=O)N[C@@H](Cc1ccccc1)C(=O)N[C@H](C(=O)N[C@@H](CCC(=O)O)C(=O)N[C@@H](Cc1ccncc1)C(=O)N[C@@H](CC(C)C)C(=O)N[C@@H](CC(C)C)C(=O)N[C@@H](CCC(=O)O)C(=O)N[C@H](C(=O)NCC(=O)N1CCC[C@H]1C(=O)N[C@@H](CO)C(=O)N[C@@H](CO)C(=O)NCC(=O)N[C@@H](C)C(=O)N1CCC[C@H]1C(=O)N1CCC[C@H]1C(=O)N1CCC[C@H]1C(=O)N[C@@H](CO)C(N)=O)[C@@H](C)O)C(C)C)[C@@H](C)CC` [Example 45] (H-Y[Aib]EGTFISDYSI[αMeL]LDKK([AEEA-AEEA-γGlu-C20 diacid])HQ[Aib]DFVE[4Pal]LLETGPSSGAPPPS-NH2): less than 6.04, 6.18 and 10.18.
For `CC[C@H](C)[C@H](NC(=O)[C@H](Cc1ccccc1)NC(=O)[C@@H](NC(=O)CNC(=O)[C@H](CCC(=O)O)NC(=O)C(C)(C)NC(=O)[C@@H](N)Cc1ccc(O)cc1)[C@@H](C)O)C(=O)N[C@@H](CO)C(=O)N[C@@H](CC(=O)O)C(=O)N[C@@H](Cc1ccc(O)cc1)C(=O)N[C@@H](CO)C(=O)N[C@H](C(=O)N[C@@](C)(CC(C)C)C(=O)N[C@@H](CC(C)C)C(=O)N[C@@H](CC(=O)O)C(=O)N[C@@H](CCCCN)C(=O)N[C@@H](CCCCNC(=O)COCCOCCNC(=O)COCCOCCNC(=O)CC[C@H](NC(=O)CCCCCCCCCCCCCCCCCCC(=O)O)C(=O)O)C(=O)N[C@@H](Cc1c[nH]cn1)C(=O)N[C@@H](CCC(N)=O)C(=O)NC(C)(C)C(=O)N[C@@H](CC(=O)O)C(=O)N[C@@H](Cc1ccccc1)C(=O)N[C@H](C(=O)N[C@@H](CCC(=O)O)C(=O)N[C@@H](Cc1ccncc1)C(=O)N[C@@H](CC(C)C)C(=O)N[C@@H](CC(C)C)C(=O)N[C@@H](CCC(=O)O)C(=O)N[C@@H](CCC(N)=O)C(=O)NCC(=O)N1CCC[C@H]1C(=O)N[C@@H](CO)C(=O)N[C@@H](CO)C(=O)NCC(=O)N[C@@H](C)C(=O)N1CCC[C@H]1C(=O)N1CCC[C@H]1C(=O)N1CCC[C@H]1C(=O)N[C@@H](CO)C(N)=O)C(C)C)[C@@H](C)CC` [Example 46] (H-Y[Aib]EGTFISDYSI[αMeL]LDKK([AEEA-AEEA-γGlu-C20 diacid])HQ[Aib]DFVE[4Pal]LLEQGPSSGAPPPS-NH2), the pKi in assay [1] is 6.13; in assay [2] it was 6.36; in assay [3] it was 10.50.
For `CC[C@H](C)[C@H](NC(=O)[C@H](Cc1ccccc1)NC(=O)[C@@H](NC(=O)CNC(=O)[C@H](CCC(=O)O)NC(=O)C(C)(C)NC(=O)[C@@H](N)Cc1ccc(O)cc1)[C@@H](C)O)C(=O)N[C@@H](CO)C(=O)N[C@@H](CC(=O)O)C(=O)N[C@@H](Cc1ccc(O)cc1)C(=O)N[C@@H](CO)C(=O)N[C@H](C(=O)N[C@@](C)(CC(C)C)C(=O)N[C@@H](CC(C)C)C(=O)N[C@@H](CC(=O)O)C(=O)N[C@@H](CCCCN)C(=O)N[C@@H](CCCCNC(=O)COCCOCCNC(=O)COCCOCCNC(=O)CC[C@H](NC(=O)CCCCCCCCCCCCCCCCCCC(=O)O)C(=O)O)C(=O)N[C@@H](Cc1c[nH]cn1)C(=O)N[C@@H](CCC(N)=O)C(=O)NC(C)(C)C(=O)N[C@@H](CC(=O)O)C(=O)N[C@@H](Cc1ccccc1)C(=O)N[C@H](C(=O)N[C@@H](CCC(=O)O)C(=O)N[C@@H](Cc1ccncc1)C(=O)N[C@@H](CC(C)C)C(=O)N[C@@H](CC(C)C)C(=O)N[C@@H](CCC(=O)O)C(=O)NCC(=O)NCC(=O)N1CCC[C@H]1C(=O)N[C@@H](CO)C(=O)N[C@@H](CO)C(=O)NCC(=O)N[C@@H](C)C(=O)N1CCC[C@H]1C(=O)N1CCC[C@H]1C(=O)N1CCC[C@H]1C(=O)N[C@@H](CO)C(N)=O)C(C)C)[C@@H](C)CC` [Example 47] (H-Y[Aib]EGTFISDYSI[αMeL]LDKK([AEEA-AEEA-γGlu-C20 diacid])HQ[Aib]DFVE[4Pal]LLEGGPSSGAPPPS-NH2), the pKi in assay [1] is 6.49; in assay [2] it was 6.76; in assay [3], 10.34.
